Assay results published in ChEMBL document CHEMBL4118257, “Discovery of 2-(3,5-difluoro-4-methylsulfonaminophenyl)propanamides as potent TRPV1 antagonists” (Bioorg Med Chem Lett, 2018).

Experiments:
[1] = target: T1, Transient receptor potential cation channel subfamily V member 1 (Homo sapiens, UniProt Q8NER1); experiment: Antagonist activity at recombinant human TRPV1 expressed in CHOK1 cells assessed as reduction in capsaicin-induced Ca2+ flux after 15 mins by fluo-4-based FLIPR assay; type: cell-based
T1 sequence (Q8NER1 whole entry): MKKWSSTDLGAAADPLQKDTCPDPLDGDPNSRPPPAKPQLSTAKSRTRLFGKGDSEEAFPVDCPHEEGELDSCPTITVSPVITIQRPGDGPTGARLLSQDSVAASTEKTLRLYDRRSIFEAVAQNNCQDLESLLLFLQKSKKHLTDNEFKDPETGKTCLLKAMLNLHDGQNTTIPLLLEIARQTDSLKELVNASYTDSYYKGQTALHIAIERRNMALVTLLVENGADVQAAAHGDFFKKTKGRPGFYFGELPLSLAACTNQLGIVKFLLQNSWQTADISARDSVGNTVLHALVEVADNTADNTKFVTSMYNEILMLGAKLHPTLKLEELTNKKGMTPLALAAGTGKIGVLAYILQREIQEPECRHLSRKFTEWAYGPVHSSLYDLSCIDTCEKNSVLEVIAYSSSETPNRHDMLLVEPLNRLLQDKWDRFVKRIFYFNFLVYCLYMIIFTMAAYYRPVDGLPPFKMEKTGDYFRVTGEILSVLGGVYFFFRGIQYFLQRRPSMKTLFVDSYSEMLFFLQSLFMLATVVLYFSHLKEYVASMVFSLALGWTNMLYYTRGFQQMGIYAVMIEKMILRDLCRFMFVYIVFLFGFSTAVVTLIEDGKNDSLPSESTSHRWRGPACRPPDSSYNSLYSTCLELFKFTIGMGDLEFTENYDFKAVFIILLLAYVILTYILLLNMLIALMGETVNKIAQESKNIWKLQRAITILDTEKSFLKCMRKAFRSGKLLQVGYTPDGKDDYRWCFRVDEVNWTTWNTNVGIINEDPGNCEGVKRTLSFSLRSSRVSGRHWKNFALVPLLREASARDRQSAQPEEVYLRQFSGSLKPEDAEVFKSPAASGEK

[2] = target: T1, Transient receptor potential cation channel subfamily V member 1; experiment: Antagonist activity at recombinant human TRPV1 expressed in CHOK1 cells assessed as reduction in low pH-induced Ca2+ flux after 15 mins by fluo-4-based FLIPR assay; type: cell-based
[3] = target: T1, Transient receptor potential cation channel subfamily V member 1; experiment: Antagonist activity at recombinant human TRPV1 expressed in CHOK1 cells assessed as reduction in temperature-induced Ca2+ flux after 15 mins at 45 degC by fluo-4-based FLIPR assay; type: cell-based
[4] = target: Transient receptor potential cation channel subfamily V member 1 (Rattus norvegicus, UniProt O35433); experiment: Antagonist activity at recombinant rat TRPV1 expressed in HEK293 cells assessed as reduction in capsaicin-induced Ca2+ flux preincubated for 3 mins followed by capsaicin addition measured by calcium 4-dye based FLIPR assay; type: cell-based
Chain of Transient receptor potential cation channel subfamily V member 1 (Rattus norvegicus, UniProt O35433) (O35433 whole entry): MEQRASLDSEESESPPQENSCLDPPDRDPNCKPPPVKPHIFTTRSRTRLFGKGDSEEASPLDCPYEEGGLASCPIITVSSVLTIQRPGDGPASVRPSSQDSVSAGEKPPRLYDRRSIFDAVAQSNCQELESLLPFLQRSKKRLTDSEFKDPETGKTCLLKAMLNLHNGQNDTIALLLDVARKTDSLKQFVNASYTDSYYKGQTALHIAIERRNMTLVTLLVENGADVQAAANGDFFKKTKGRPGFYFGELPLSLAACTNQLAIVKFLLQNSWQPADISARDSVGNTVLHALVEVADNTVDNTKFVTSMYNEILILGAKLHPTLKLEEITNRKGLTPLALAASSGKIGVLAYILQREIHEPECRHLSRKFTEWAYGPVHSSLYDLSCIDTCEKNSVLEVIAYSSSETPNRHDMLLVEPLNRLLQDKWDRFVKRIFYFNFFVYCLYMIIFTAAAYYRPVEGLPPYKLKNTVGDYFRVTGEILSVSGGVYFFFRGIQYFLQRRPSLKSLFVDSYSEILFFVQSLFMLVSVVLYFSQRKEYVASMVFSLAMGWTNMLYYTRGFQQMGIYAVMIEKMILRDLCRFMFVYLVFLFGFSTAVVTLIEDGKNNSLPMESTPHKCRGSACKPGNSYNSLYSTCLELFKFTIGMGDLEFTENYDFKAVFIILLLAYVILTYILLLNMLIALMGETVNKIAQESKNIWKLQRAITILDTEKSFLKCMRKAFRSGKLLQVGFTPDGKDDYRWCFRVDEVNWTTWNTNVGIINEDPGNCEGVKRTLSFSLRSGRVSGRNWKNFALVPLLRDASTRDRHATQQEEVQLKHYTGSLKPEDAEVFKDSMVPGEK

[5] = system: Rattus norvegicus; experiment: In vivo antagonist activity at TRPV1 in rat assessed as reduction in capsaicin-induced hypothermia at 3 mg/kg, po relative to control; type: functional
[6] = system: Rattus norvegicus; experiment: In vivo antagonist activity at TRPV1 in rat assessed as reduction in capsaicin-induced hypothermia at 10 mg/kg, po relative to control; type: functional
[7] = system: Mus musculus; experiment: Analgesic activity in formalin-induced pain mouse model assessed reduction in pain response at 3 mg/kg, iv measured at 20 to 30 mins post administration by formalin test relative to control; type: functional
[8] = system: Mus musculus; experiment: Toxicity in formalin-induced pain mouse model assessed as hyperthermia at 10 mg/kg, po; type: organism-based; conditions: in vivo

Structure (SMILES)	Ki ([1]; read-out: Ki)	also measured
COc1cc(C(C)C(=O)NCc2ccc(C(F)(F)F)nc2N2CCC(C)CC2)cc(F)c1NS(C)(=O)=O (stereo not drawn)	0.3 nM	
COc1cc(C(C)C(=O)NCc2ccc(C(F)(F)F)nc2N2CCC(C)CC2)cc(OC)c1NS(C)(=O)=O (stereo not drawn)	1.6 nM	
CC1CCN(c2nc(C(F)(F)F)ccc2CNC(=O)C(C)c2cc(F)c(NS(C)(=O)=O)c(F)c2)CC1 (stereo not drawn)	0.2 nM	IC50 [2]: 8.7 nM; IC50 [3]: 8.1 nM; Ki [4]: 0.1 nM; inhibition in vivo at 3 mg/kg [5]: 57%; inhibition in vivo at 10 mg/kg [6]: 100%; inhibition in vivo at 3 mg/kg [7]: 43%; Activity [8]: Toxic
CC1CCN(c2nc(C(F)(F)F)ccc2CNC(=O)C(C)c2ccc(NS(=O)(=O)C(F)(F)F)c(F)c2)CC1 (stereo not drawn)		Ki [1]: Not Active
CC1CCN(c2nc(C(F)(F)F)ccc2CNC(=O)C(C)c2cc(F)c(NS(C)(=O)=O)c(Br)c2)CC1 (stereo not drawn)	0.7 nM	
CC1CCN(c2nc(C(F)(F)F)ccc2CNC(=O)C(C)c2ccc(N(CC#N)S(C)(=O)=O)c(F)c2)CC1 (stereo not drawn)		Ki [1]: Not Active
COc1cc(C(C)C(=O)NCc2ccc(C(F)(F)F)nc2N2CCC(C)CC2)ccc1NS(C)(=O)=O (stereo not drawn)	0.8 nM	

The next lines start with results.

Ki ([1]; read-out: Ki)	Structure (SMILES)	also measured
2.7 nM	CC1CCN(c2nc(C(F)(F)F)ccc2CNC(=O)C(C)c2ccc(NS(N)(=O)=O)c(F)c2)CC1 (stereo not drawn)	
2.3 nM	CC1CCN(c2nc(C(F)(F)F)ccc2CNC(=O)C(C)c2ccc(NS(C)(=O)=O)c(Cl)c2)CC1 (stereo not drawn)	
2.4 nM	C=CC(=O)N(c1ccc(C(C)C(=O)NCc2ccc(C(F)(F)F)nc2N2CCC(C)CC2)cc1F)S(C)(=O)=O (stereo not drawn)	
3.2 nM	CC1CCN(c2nc(C(F)(F)F)ccc2CNC(=O)C(C)c2ccc(NS(C)(=O)=O)c(Br)c2)CC1 (stereo not drawn)	
